Where two headings read alike, the source gives them in different places.
How the values were obtained:
[1] = test system: Male Wistar rats; format: in vivo; details: rat
[2] = molecular target: human recombinant butyrylcholinesterase (Homo sapiens (Human), UniProt P06276); assay: biochemical; format: biochemical
[3] = molecular target: Human recombinant acetylcholinesterase (Homo sapiens (Human), UniProt P22303); assay: biochemical
Sequence of Human recombinant acetylcholinesterase (P22303 32-614 limits assumed): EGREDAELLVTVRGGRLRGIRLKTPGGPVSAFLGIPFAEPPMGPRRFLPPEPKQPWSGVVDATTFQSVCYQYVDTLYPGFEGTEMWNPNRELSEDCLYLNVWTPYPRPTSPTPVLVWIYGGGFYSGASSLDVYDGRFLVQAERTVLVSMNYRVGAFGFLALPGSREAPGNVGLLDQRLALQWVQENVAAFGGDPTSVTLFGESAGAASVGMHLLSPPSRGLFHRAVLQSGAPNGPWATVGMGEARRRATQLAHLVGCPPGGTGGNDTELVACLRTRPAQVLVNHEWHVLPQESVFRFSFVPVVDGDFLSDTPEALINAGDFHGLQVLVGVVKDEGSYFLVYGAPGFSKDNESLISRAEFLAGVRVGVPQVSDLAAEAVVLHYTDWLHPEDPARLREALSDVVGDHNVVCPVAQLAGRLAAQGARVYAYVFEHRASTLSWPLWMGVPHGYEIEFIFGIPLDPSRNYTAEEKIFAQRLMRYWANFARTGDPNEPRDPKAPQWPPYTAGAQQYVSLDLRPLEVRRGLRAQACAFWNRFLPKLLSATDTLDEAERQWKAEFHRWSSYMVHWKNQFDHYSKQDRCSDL

Sequence of human recombinant butyrylcholinesterase (P06276 29-602 limits assumed): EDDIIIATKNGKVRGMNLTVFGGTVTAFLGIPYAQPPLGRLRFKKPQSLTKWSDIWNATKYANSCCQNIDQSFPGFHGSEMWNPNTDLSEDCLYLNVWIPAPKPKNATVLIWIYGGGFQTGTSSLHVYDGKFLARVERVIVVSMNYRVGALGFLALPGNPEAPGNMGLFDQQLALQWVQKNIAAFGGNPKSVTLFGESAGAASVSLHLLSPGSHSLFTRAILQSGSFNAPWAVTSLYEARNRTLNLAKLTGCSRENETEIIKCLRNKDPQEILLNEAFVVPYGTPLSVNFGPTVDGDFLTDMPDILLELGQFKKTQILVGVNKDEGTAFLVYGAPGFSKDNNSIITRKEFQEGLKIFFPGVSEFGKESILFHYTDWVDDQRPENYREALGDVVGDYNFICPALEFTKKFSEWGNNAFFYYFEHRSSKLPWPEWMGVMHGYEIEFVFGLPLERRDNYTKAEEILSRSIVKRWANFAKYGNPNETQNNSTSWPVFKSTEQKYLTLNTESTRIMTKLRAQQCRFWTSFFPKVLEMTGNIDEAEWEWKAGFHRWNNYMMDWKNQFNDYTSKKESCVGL

Compound	Reverse (%) (percentage antagonism of scopolamine-induced latency deficit) ([1]; in vivo)	IC50 [2]	IC50 [3]	BCHE inhibitory potential in comparison to the current drugs (galantamine, rivastigmine, donepezil) [2]	other results
CC(c1ccc2c(c1)oc(=O)c1ccccc12)N(C)C (racemic) [FAR-02-2RS, (±)-3-(1-(dimethylamino)ethyl)-6H-benzo[c]chromen-6-one]	70%	17.9 µM	10.9 µM		
CCN(C)C(=O)Oc1cccc([C@H](C)N(C)C)c1 [Rivastigmine, reference compound]	85%				
CCN(C)C(=O)Oc1cc(C(C)N(C)C)c2c(c1)oc(=O)c1ccccc12 (racemic) [FAR-01-1CA, (±)-1-(1-(dimethylamino)ethyl)-6-oxo-6H-benzo[c]chromen-3-yl ethyl(methyl)carbamate]		8.5 µM	> 40 µM	at least comparable and/or better inhibitory potential	selectivity BCHE versus ACHE [2]: possess selectivity to inhibit the BCHE
COc1cc(C(C)N(C)C)c2c(c1)oc(=O)c1ccccc12 (racemic) [FAR-01-1, (±)-1-(1-(dimethylamino)ethyl)-3-methoxy-6H-benzo[c]chromen-6-one]		24.7 µM			
COc1cc(C(C)N(C)C)cc2oc(=O)c3ccccc3c12 (racemic) [FAR-01-2, (±)-3-(1-(dimethylamino)ethyl)-1-methoxy-6H-benzo[c]chromen-6-one]	71%	21.1 µM	2.8 µM		
CC(c1cc(O)c2c(c1)oc(=O)c1ccccc12)N(C)C (racemic) [FAR-01-2OH, (±)-3-(1-(dimethylamino)ethyl)-1-hydroxy-6H-benzo[c]chromen-6-one]	49%	4.2 µM	18.9 µM	at least comparable and/or better inhibitory potential	
CCN(C)C(=O)Oc1cc(C(C)N(C)C)cc2oc(=O)c3ccccc3c12 (racemic) [FAR-01-2CA, (±)-3-(1-(dimethylamino)ethyl)-6-oxo-6H-benzo[c]chromen-1-yl ethyl(methyl)carbamate]		12.7 µM		at least comparable and/or better inhibitory potential	Reverse (%) (percentage antagonism of scopolamine-induced latency deficit) ([1]; compound 1 mg/kg oral, scopolamine 1 mg/kg i.p., latency measured for 5 minutes): 53%
C[C@@H](c1ccc2c(c1)oc(=O)c1ccccc12)N(C)C [FAR-02-2S, (S)-3-(1-(dimethylamino)ethyl)-6H-benzo[c]chromen-6-one]	71%				IC50 ([2]; read-out: BCHE Inhibitory Activity IC50): 16.2 µM; IC50 ([3]; read-out: ACHE Inhibitory Activity IC50): 7.9 µM
COc1cc2c(cc1OC)C(=O)C(CC1CCN(Cc3ccccc3)CC1)C2 (stereo not shown) [Donepezil, reference compound]	52%				
CC(c1cc(O)cc2oc(=O)c3ccccc3c12)N(C)C (racemic) [FAR-01-1OH, (±)-1-(1-(dimethylamino)ethyl)-3-hydroxy-6H-benzo[c]chromen-6-one]		> 40 µM	33.1 µM		

Source: US9586925B2 (priority 2013, dated 2017)
